Reference: patent US20130142831A1, “COMPOUNDS FOR INFLAMMATION AND IMMUNE-RELATED USES” (Synta Pharmaceuticals Corp., priority 2004, published 2013)

System: IL-2 production
Assay: Inhibition of IL-2 production in PHA-activated Jurkat cells
Assay type: cell-based
Details: Homo sapiens, PHA 2.5 μg/mL, 20 hours
Description: Jurkat cells were placed in a 96 well plate (0.5 million cells per well in 1% FBS medium) then test compounds of this invention were added at different concentrations. After 10 minutes, the cells were activated with PHA (final concentration 2.5 μg/mL) and incubated for 20 hours at 37° C. under CO2. The final volume was 200 μL. Following incubation, the cells were centrifuged and the supernatants collected and stored at −70° C. prior to assaying for IL-2 production. A commercial kit (IL-2 Eli-pair, Diaclone Research, Besancon, France) was used to detect production of IL-2, from which dose response curves were obtained. The IC50 value was calculated as the concentration at which. 50% of maximum IL-2 production after stimulation was inhibited versus a non-stimulation control.

| IC50 (bins given with μM limit) | IC50 (bins given in nM) | SMILES |
| --- | --- | --- |
| > 1 µM | – | O=C(Nc1ccc(-n2c(C(F)(F)F)nc3cc(O)c(O)cc32)cc1)c1cccc(F)c1F [Compound 60, 2,3-Difluoro-N-[4-(2-trifluoromethyl-5,6-dihydroxy-benzoimidazol-1-yl)-phenyl]-benzamide] |
| > 1 µM | – | O=C(Nc1ccc(-n2c(C(F)(F)F)nc3cnccc32)cc1)c1cccc(F)c1F [Compound 61, 2,3-Difluoro-N-[4-(2-trifluoromethyl-imidazo[4,5-c]pyrid-1-yl)-phenyl]-benzamide] |
| – | 0.1 to 0.5 µM | COc1ccc2c(c1)nc(C(F)(F)F)n2-c1ccc(NC(=O)c2c(Cl)cc(Cl)cc2Cl)cc1 [Compound 63, 2,4,6-Trichloro-N-[4-(2-trifluoromethyl-5-methoxy-benzoimidazol-1-yl)-phenyl]-benzamide] |
| – | 0.1 to 0.5 µM | O=C(Nc1ccc(-n2c(C(F)(F)F)nc3cc(C(F)(F)F)ccc32)cc1)c1cccc(F)c1F [Compound 64, 2,3-Difluoro-N-{4-[2,5-di-(trifluoromethyl)-benzoimidazol-1-yl]-phenyl}-benzamide] |
| – | 0.1 to 0.5 µM | CS(=O)(=O)c1ccc2c(c1)nc(C(F)(F)F)n2-c1ccc(NC(=O)c2cccc(F)c2F)cc1 [Compound 65, 2,3-Difluoro-N-[4-(2-trifluoromethyl-5-methanesulfonyl-benzoimidazol-1-yl)-phenyl]-benzamide] |
| – | 0.1 to 0.5 µM | CCCCc1ccc(C(=O)Nc2ccc(-n3c(C(F)(F)F)nc4cc(OC)ccc43)cc2)cc1 [Compound 66, 4-Butyl-N-[4-(2-trifluoromethyl-5-methoxy-benzoimidazol-1-yl)-phenyl]-benzamide] |
| – | < 0.1 µM | COc1ccc2c(c1)nc(C(F)(F)F)n2-c1ccc(NC(=O)c2cc(F)c(F)c(F)c2F)cc1 [Compound 71, 2,3,4,5-Tetrafluoro-N-[4-(2-trifluoromethyl-5-methoxy-benzoimidazol-1-yl)-phenyl]-benzamide] |
| – | 0.1 to 0.5 µM | COc1ccc2c(c1)nc(C(F)(F)F)n2-c1ccc(NC(=O)c2ccc(I)cc2)cc1 [Compound 73, 4-Iodo-N-[4-(2-trifluoromethyl-5-methoxy-benzoimidazol-1-yl)-phenyl]-benzamide] |
| – | 0.1 to 0.5 µM | COc1ccc2c(c1)nc(C(F)(F)F)n2-c1ccc(NC(=O)c2ccc3ccccc3c2)cc1 [Compound 74, Naphthalene-2-carboxylic acid {N-[4-(2-trifluoromethyl-5-methoxy-benzoimidazol-1-yl)-phenyl]} amide] |
| – | 0.1 to 0.5 µM | COc1ccc2c(c1)nc(C(F)(F)F)n2-c1ccc(NC(=O)c2ccc(C)cc2)cc1 [Compound 76, 4-Methyl-N-[4-(2-trifluoromethyl-5-methoxy-benzoimidazol-1-yl)-phenyl]-benzamide] |
| – | 0.1 to 0.5 µM | COc1ccc2c(c1)nc(C(F)(F)F)n2-c1ccc(NC(=O)c2ccc(C#N)cc2)cc1 [Compound 77, 4-Cyano-N-[4-(2-trifluoromethyl-5-methoxy-benzoimidazol-1-yl)-phenyl]-benzamide] |
| – | 0.1 to 0.5 µM | COc1ccc2c(c1)nc(C(F)(F)F)n2-c1ccc(NC(=O)c2ccc([N+](=O)[O-])cc2)cc1 [Compound 78, 4-Nitro-N-[4-(2-trifluoromethyl-5-methoxy-benzoimidazol-1-yl)-phenyl]-benzamide] |
| – | 0.1 to 0.5 µM | CCc1ccc(C(=O)Nc2ccc(-n3c(C(F)(F)F)nc4cc(OC)ccc43)cc2)cc1 [Compound 79, 4-Ethyl-N-[4-(2-trifluoromethyl-5-methoxy-benzoimidazol-1-yl)-phenyl]-benzamide] |
| – | 0.1 to 0.5 µM | COc1ccc2c(c1)nc(C(F)(F)F)n2-c1ccc(NC(=O)c2ccc(C(F)(F)F)cc2)cc1 [Compound 80, 4-Trifluoromethyl-N-[4-(2-trifluoromethyl-5-methoxy-benzoimidazol-1-yl)-phenyl]-benzamide] |
| – | 0.1 to 0.5 µM | CCCC(=O)Nc1ccc(-n2c(C(F)(F)F)nc3cc(OC)ccc32)cc1 [Compound 82, N-[4-(2-trifluoromethyl-5-methoxy-benzoimidazol-1-yl)-phenyl]-butyramide] |
| – | 0.1 to 0.5 µM | COc1ccc2c(c1)nc(C(F)(F)F)n2-c1ccc(NC(=O)c2cccc3ccccc23)cc1 [Compound 83, Naphthalene-1-carboxylic acid {N-[4-(2-trifluoromethyl-5-methoxy-benzoimidazol-1-yl)-phenyl]} amide] |
| – | 0.1 to 0.5 µM | COc1ccc2c(c1)nc(C(F)(F)F)n2-c1ccc(NC(=O)C=C(C)C)cc1 [Compound 84, 3-Methyl-N-[4-(2-trifluoromethyl-5-methoxy-benzoimidazol-1-yl)-phenyl]-but-2-enoic acid amide] |
| – | 0.1 to 0.5 µM | CCCc1ccc(C(=O)Nc2ccc(-n3c(C(F)(F)F)nc4cc(OC)ccc43)cc2)cc1 [Compound 85, 4-Propyl-N-[4-(2-trifluoromethyl-5-methoxy-benzoimidazol-1-yl)-phenyl]-benzamide] |
| – | 0.1 to 0.5 µM | COc1ccc2c(c1)nc(C(F)(F)F)n2-c1ccc(NC(=O)c2cccs2)cc1 [Compound 86, Thiophene-2-carboxylic acid {N-[4-(2-trifluoromethyl-5-methoxy-benzoimidazol-1-yl)-phenyl]} amide] |
| – | 0.1 to 0.5 µM | COc1cccc(C(=O)Nc2ccc(-n3c(C(F)(F)F)nc4cc(OC)ccc43)cc2)c1 [Compound 89, 3-Methoxy-N-[4-(2-trifluoromethyl-5-methoxy-benzoimidazol-1-yl)-phenyl]-benzamide] |

More lines, now with the values behind:

| SMILES | IC50 (bins given with μM limit) | IC50 (bins given in nM) |
| --- | --- | --- |
| O=S(=O)(Nc1ccc(-n2c(C(F)(F)F)nc3ccccc32)cc1)c1cccc(F)c1F [Compound 52, 2,3-Difluoro-N-[4-(trifluoromethyl-benzoimidazol-1-yl)-phenyl]-benzenesulfonamide] | > 1 µM | – |
| CC(=O)Nc1cc(NC(=O)c2cccc(F)c2F)ccc1-n1c(C(F)(F)F)nc2ccccc21 [Compound 53, 2,3-Difluoro-N-[3-acetylamino-4-(2-trifluoromethyl-benzoimidazol-1-yl)-phenyl]-benzamide] | > 1 µM | – |
| O=C(Nc1ccc(-n2cnc3ccccc32)cc1)c1cccc(F)c1F [Compound 54, 2,3-Difluoro-N-[4-(benzoimidazol-1-yl)-phenyl]-benzamide] | > 1 µM | – |
| Cc1cc(-n2c(C(F)(F)F)nc3ccccc32)ccc1NC(=O)c1cccc(F)c1F [Compound 55, 2,3-Difluoro-N-[2-methyl-4-(2-trifluoromethyl-benzoimidazol-1-yl)-phenyl]-benzamide] | > 1 µM | – |
| O=C(Nc1ccc(-n2c(C(F)(F)F)nc3cc(N4C(=O)c5ccccc5C4=O)ccc32)cc1)c1cccc(F)c1F [Compound 57, 2,3-Difluoro-N-{4-[2-trifluoromethyl-5-(1,3-dioxo-isoindol-2-yl)-benzoimidazol-1-yl]-phenyl}-benzamide] | > 1 µM | – |
| Cc1nnsc1C(=O)Nc1ccc(-n2c(C(F)(F)F)nc3cccnc32)cc1 [Compound 58, 4-Methyl-[1,2,3]thiadiazole-5-carboxylic acid {N-[4-(2-trifluoromethyl-imidazo[4,5-b]pyrid-3-yl)-phenyl]} amide] | > 1 µM | – |
| Cc1nnsc1C(=O)Nc1ccc(-n2c(C(F)(F)F)nc3ccccc32)nc1 [Compound 62, 4-Methyl-[1,2,3]thiadiazole-5-carboxylic acid {N-[2-(2-trifluoromethyl-benzoimidazol-1-yl)-pyrid-5-yl]} amide] | > 1 µM | – |
| CC(C)(C)c1cnc(-c2ccc3c(c2)nc(C(F)(F)F)n3-c2ccc(NC(=O)c3cc(F)ccc3F)cc2)o1 [Compound 67, 2,5-Difluoro-N-{4-[2-trifluoromethyl-5-(5-tert-butyl-oxazol-2-yl)-benzoimidazol-1-yl]-phenyl}-benzamide] | > 1 µM | – |
| CC(C)(C)c1cnc(-c2ccc3c(c2)nc(C(F)(F)F)n3-c2ccc(NC(=O)c3cccc(F)c3F)cc2)o1 [Compound 68, 2,3-Difluoro-N-{4-[2-trifluoromethyl-5-(5-tert-butyl-oxazol-2-yl)-benzoimidazol-1-yl]-phenyl}-benzamide] | > 1 µM | – |
| CC(C)(C)c1cnc(-c2ccc3c(c2)nc(C(F)(F)F)n3-c2ccc(NC(=O)c3ccco3)cc2)o1 [Compound 69, Furan-2-carboxylic acid (N-{4-[2-trifluoromethyl-5-(5-tert-butyl-oxazol-2-yl)-benzoimidazol-1-yl]-phenyl}) amide] | – | 0.1 to 0.5 µM |
| O=C(Nc1ccc(-c2c(C(F)(F)F)nc3ccccn23)cc1)c1cccc(F)c1F [Compound 70, 2,3-Difluoro-N-[4-(2-trifluoromethyl-imidazo[1,2-a]pyrid-3-yl)-phenyl]-benzamide] | – | 0.1 to 0.5 µM |
| COc1ccc2c(c1)nc(C(F)(F)F)n2-c1ccc(NC(=O)c2ccc(-c3ccccc3)cc2)cc1 [Compound 72, 4-Phenyl-N-[4-(2-trifluoromethyl-5-methoxy-benzoimidazol-1-yl)-phenyl]-benzamide] | – | 0.1 to 0.5 µM |
| COc1ccc2c(c1)nc(C(F)(F)F)n2-c1ccc(NC(=O)c2cc([N+](=O)[O-])cc([N+](=O)[O-])c2)cc1 [Compound 81, 3,5-Dinitro-N-[4-(2-trifluoromethyl-5-methoxy-benzoimidazol-1-yl)-phenyl]-benzamide] | – | 0.1 to 0.5 µM |
| CCCCC(CC)C(=O)Nc1ccc(-n2c(C(F)(F)F)nc3cc(OC)ccc32)cc1 (stereo not drawn) [Compound 87, 2-Ethyl-N-[4-(2-trifluoromethyl-5-methoxy-benzoimidazol-1-yl)-phenyl]-hexanoic acid amide] | – | 0.1 to 0.5 µM |
| CCCCCCC(=O)Nc1ccc(-n2c(C(F)(F)F)nc3cc(OC)ccc32)cc1 [Compound 88, N-[4-(2-trifluoromethyl-5-methoxy-benzoimidazol-1-yl)-phenyl]-heptanoic acid amide] | – | 0.1 to 0.5 µM |
| COc1ccc2c(c1)nc(C(F)(F)F)n2-c1ccc(NC(=O)C2CC2c2ccccc2)cc1 (stereo not drawn) [Compound 90, 2-Phenyl-N-[4-(2-trifluoromethyl-5-methoxy-benzoimidazol-1-yl)-phenyl]-cyclopropanecarboxylic acid amide] | – | 0.1 to 0.5 µM |
